Common to all, as to assay: biochemical
What all share (type): biochemical

Test [1] concerns the target 363 human kinases (including Aurora A/B/C) (Homo sapiens, UniProt O75716). As to conditions: STK16; for remaining activity at 0.5 µM / remaining activity at 0.1 µM: read-out: % Enzyme Activity (relative to DMSO controls); for remaining activity at 0.1 µM: 100 nM.
Description: (§1) However, the Aurora A/B selectivity ratios derived from our in vitro and in vivo data can be compared to prioritize inhibitors.
Test [2] deals with 363 human kinases (including Aurora A/B/C) (Homo sapiens, UniProt O95819). As to conditions: HGK/MAP4K4; for remaining activity at 0.5 µM / remaining activity at 0.1 µM: read-out: % Enzyme Activity (relative to DMSO controls); for remaining activity at 0.1 µM: 100 nM.
Description: as §1
Test [3] has as its target 363 human kinases (including Aurora A/B/C) (Homo sapiens, UniProt P04626). As to conditions: ERBB2/HER2, [ATP] 20 µM; for remaining activity at 0.5 µM / remaining activity at 0.1 µM: read-out: % Enzyme Activity (relative to DMSO controls); for remaining activity at 0.1 µM: 100 nM.
Description: as §1
The target in test [4] is 363 human kinases (including Aurora A/B/C) (Homo sapiens, UniProt P31749). To be noted: AKT1, [ATP] 100 µM; for remaining activity at 0.5 µM / remaining activity at 0.1 µM: read-out: % Enzyme Activity (relative to DMSO controls); for remaining activity at 0.1 µM: 100 nM.
363 human kinases (including Aurora A/B/C) (Homo sapiens, UniProt P31749), sequence (P31749 whole entry): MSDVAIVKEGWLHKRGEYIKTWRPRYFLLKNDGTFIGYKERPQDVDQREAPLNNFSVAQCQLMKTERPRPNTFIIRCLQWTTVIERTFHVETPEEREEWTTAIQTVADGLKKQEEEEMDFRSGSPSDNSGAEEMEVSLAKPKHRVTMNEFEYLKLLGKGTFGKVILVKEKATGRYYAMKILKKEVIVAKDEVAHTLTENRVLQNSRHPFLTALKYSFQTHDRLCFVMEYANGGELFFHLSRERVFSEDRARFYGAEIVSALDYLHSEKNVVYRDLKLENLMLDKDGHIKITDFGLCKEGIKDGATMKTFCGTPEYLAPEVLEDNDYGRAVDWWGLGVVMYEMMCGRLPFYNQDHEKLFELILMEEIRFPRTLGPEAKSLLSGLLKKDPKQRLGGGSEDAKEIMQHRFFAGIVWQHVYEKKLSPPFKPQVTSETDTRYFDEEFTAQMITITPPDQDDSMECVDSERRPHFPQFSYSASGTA
Description: as §1
Test [5] has as its target T1, 363 human kinases (including Aurora A/B/C) (Homo sapiens, UniProt P42679).
T1 sequence (P42679 1-507): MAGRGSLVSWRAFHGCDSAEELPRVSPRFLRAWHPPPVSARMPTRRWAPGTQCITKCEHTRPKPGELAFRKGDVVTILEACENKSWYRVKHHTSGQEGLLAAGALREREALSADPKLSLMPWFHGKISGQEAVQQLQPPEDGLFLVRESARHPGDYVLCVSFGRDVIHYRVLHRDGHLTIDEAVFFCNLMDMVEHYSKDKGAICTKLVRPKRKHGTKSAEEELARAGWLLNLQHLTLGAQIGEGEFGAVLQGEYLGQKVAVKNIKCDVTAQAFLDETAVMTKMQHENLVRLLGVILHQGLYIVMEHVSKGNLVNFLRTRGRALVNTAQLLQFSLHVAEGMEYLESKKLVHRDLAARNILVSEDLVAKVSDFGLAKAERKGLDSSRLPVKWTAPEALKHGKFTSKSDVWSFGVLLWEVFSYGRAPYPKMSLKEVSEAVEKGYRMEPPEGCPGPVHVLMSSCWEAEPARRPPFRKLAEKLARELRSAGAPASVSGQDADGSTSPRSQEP
As to conditions: CTK/MATK, [ATP] 100 µM; for remaining activity at 0.5 µM / remaining activity at 0.1 µM: read-out: % Enzyme Activity (relative to DMSO controls); for remaining activity at 0.1 µM: 100 nM.
Description: as §1

Test [6] addresses T2, 363 human kinases (including Aurora A/B/C) (Homo sapiens, UniProt P51813).
T2 sequence (P51813 1-675): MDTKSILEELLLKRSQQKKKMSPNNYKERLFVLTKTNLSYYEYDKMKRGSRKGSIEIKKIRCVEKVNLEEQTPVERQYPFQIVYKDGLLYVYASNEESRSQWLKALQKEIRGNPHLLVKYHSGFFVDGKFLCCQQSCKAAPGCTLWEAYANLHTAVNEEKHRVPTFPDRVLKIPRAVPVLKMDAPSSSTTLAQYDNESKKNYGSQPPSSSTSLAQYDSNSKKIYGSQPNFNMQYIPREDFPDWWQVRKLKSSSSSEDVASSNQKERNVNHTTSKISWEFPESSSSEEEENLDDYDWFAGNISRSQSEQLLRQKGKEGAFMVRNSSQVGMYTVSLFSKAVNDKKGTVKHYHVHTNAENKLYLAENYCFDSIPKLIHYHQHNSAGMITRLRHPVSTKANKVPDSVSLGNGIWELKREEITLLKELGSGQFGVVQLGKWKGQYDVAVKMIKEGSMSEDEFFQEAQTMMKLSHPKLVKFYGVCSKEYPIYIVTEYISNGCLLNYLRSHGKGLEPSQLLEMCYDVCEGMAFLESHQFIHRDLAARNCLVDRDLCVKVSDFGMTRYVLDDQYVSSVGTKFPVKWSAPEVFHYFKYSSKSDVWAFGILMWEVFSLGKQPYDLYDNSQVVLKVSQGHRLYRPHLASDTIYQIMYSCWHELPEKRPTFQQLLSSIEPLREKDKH
To be noted: BMX/ETK, [ATP] 50 µM; for remaining activity at 0.5 µM / remaining activity at 0.1 µM: read-out: % Enzyme Activity (relative to DMSO controls); for remaining activity at 0.1 µM: 100 nM.
Description: as §1

Test [7] has as its target 363 human kinases (including Aurora A/B/C) (Homo sapiens, UniProt P53779). As to conditions: JNK3; for remaining activity at 0.5 µM / remaining activity at 0.1 µM: read-out: % Enzyme Activity (relative to DMSO controls); for remaining activity at 0.1 µM: 100 nM.
Description: as §1
Test [8] concerns the target 363 human kinases (including Aurora A/B/C) (Homo sapiens, UniProt Q00536). As to conditions: CDK16/cyclin Y (PCTAIRE), [ATP] 15 µM; for remaining activity at 0.5 µM / remaining activity at 0.1 µM: read-out: % Enzyme Activity (relative to DMSO controls); for remaining activity at 0.1 µM: 100 nM.
Description: as §1
The target of test [9] is 363 human kinases (including Aurora A/B/C) (Homo sapiens, UniProt Q08345). To be noted: DDR1, [ATP] 100 µM; for remaining activity at 0.5 µM / remaining activity at 0.1 µM: read-out: % Enzyme Activity (relative to DMSO controls); for remaining activity at 0.1 µM: 100 nM.
363 human kinases (including Aurora A/B/C) (Homo sapiens, UniProt Q08345), sequence (Q08345 19-913): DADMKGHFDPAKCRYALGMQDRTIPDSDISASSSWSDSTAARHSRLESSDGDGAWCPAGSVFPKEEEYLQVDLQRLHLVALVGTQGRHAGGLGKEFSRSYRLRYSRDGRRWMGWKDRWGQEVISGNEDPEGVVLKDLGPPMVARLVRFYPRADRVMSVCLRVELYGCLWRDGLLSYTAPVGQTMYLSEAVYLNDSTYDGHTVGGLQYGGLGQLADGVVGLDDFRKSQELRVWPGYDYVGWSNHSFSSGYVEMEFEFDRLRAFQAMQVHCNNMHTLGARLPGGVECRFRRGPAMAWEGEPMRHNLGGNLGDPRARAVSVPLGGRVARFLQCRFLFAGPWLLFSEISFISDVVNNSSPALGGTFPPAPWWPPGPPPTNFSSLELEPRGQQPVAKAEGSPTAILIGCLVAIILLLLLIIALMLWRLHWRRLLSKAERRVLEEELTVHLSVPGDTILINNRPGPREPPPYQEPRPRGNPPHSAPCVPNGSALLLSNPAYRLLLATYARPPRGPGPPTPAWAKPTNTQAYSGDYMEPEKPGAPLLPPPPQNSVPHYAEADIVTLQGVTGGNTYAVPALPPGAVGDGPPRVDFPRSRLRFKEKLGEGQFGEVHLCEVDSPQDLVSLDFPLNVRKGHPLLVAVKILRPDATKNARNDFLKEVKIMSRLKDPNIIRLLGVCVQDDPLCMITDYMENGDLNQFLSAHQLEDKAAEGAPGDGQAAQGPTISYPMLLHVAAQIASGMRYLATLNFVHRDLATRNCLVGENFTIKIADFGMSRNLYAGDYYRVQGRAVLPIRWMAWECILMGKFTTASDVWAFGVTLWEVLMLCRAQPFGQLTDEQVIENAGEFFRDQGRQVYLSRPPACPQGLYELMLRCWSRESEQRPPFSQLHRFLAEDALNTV
Description: as §1
Test [10] concerns the target T3, 363 human kinases (including Aurora A/B/C) (Homo sapiens, UniProt Q8TF76).
T3 sequence (Q8TF76 1-798): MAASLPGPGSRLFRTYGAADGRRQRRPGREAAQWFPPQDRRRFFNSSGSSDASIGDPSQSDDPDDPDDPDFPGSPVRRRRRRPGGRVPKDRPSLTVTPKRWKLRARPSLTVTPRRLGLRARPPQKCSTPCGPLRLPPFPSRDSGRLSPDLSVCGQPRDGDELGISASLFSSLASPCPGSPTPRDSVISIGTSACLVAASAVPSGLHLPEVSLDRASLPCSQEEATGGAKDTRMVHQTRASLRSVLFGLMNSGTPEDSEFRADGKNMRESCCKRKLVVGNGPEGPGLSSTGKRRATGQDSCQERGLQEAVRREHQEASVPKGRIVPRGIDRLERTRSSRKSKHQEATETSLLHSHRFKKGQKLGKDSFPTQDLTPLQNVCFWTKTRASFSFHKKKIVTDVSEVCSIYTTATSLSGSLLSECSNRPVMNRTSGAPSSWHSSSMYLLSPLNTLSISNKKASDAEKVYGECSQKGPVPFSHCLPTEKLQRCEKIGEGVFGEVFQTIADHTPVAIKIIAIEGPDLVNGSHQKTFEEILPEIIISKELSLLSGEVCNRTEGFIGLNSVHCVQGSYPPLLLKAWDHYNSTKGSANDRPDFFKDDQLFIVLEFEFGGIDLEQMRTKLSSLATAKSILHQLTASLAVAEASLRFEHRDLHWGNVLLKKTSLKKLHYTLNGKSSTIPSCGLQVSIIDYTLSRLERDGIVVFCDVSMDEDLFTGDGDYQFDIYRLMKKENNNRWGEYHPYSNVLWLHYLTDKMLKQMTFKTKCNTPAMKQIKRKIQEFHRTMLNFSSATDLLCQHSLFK
As to conditions: Haspin; for remaining activity at 0.5 µM / remaining activity at 0.1 µM: read-out: % Enzyme Activity (relative to DMSO controls); for remaining activity at 0.1 µM: 100 nM.
Description: as §1

The target of test [11] is 363 human kinases (including Aurora A/B/C) (Homo sapiens, UniProt Q9H2X6). To be noted: HIPK2; for remaining activity at 0.5 µM / remaining activity at 0.1 µM: read-out: % Enzyme Activity (relative to DMSO controls); for remaining activity at 0.1 µM: 100 nM.
363 human kinases (including Aurora A/B/C) (Homo sapiens, UniProt Q9H2X6), sequence (Q9H2X6 whole entry): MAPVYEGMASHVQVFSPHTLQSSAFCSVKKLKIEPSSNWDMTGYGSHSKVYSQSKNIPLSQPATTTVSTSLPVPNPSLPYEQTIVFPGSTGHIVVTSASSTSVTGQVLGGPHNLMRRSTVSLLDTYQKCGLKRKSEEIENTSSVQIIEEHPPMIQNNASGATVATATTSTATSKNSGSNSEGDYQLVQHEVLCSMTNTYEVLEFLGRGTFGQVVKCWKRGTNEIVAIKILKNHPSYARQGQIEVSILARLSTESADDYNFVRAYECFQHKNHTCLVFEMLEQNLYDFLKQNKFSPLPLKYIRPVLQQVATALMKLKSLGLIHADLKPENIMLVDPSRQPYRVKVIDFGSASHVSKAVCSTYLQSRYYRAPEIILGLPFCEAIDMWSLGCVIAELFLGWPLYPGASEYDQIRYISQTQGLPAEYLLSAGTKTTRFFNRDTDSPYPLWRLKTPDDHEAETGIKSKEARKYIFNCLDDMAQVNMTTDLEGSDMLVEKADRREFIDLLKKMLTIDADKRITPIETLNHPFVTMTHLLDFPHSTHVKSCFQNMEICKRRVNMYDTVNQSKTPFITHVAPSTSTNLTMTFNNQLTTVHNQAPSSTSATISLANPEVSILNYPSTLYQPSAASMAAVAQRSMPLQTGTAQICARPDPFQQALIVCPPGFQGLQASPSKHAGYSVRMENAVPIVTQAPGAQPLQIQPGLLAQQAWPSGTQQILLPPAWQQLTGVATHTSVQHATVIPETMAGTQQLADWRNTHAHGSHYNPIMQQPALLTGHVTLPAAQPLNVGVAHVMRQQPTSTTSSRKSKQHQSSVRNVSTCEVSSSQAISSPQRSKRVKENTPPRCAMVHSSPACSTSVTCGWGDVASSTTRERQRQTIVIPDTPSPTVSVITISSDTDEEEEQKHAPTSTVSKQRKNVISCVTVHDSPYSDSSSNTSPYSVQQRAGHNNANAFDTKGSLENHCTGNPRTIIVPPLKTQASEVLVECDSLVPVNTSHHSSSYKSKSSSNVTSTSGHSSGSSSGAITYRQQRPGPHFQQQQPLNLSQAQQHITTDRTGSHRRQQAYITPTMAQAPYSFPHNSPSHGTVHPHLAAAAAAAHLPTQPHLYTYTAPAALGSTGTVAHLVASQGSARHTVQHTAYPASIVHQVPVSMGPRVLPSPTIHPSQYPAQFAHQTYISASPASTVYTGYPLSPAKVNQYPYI
Description: as §1

363 human kinases (including Aurora A/B/C) (Homo sapiens, UniProt P53779), sequence (P53779 whole entry): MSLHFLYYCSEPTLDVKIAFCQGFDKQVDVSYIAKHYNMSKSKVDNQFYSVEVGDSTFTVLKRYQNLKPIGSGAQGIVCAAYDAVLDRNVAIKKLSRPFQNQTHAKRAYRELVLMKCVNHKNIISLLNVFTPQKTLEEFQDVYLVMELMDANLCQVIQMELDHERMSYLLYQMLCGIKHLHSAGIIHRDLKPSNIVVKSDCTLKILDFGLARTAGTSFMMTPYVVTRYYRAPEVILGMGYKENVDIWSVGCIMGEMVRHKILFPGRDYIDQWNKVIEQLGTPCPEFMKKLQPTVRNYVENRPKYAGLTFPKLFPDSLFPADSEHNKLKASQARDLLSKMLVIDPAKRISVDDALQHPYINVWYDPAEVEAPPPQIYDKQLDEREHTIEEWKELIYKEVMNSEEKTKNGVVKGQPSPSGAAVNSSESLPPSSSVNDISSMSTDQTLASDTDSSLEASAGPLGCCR
363 human kinases (including Aurora A/B/C) (Homo sapiens, UniProt O75716), sequence (O75716 whole entry): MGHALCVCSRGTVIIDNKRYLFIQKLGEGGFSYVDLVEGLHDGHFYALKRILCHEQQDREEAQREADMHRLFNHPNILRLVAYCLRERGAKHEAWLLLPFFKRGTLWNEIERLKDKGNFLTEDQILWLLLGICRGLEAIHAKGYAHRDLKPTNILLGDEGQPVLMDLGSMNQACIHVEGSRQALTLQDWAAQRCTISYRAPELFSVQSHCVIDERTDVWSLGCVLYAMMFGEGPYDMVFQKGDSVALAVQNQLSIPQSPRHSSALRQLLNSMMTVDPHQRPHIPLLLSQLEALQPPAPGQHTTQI
363 human kinases (including Aurora A/B/C) (Homo sapiens, UniProt P04626), sequence (P04626 23-1255): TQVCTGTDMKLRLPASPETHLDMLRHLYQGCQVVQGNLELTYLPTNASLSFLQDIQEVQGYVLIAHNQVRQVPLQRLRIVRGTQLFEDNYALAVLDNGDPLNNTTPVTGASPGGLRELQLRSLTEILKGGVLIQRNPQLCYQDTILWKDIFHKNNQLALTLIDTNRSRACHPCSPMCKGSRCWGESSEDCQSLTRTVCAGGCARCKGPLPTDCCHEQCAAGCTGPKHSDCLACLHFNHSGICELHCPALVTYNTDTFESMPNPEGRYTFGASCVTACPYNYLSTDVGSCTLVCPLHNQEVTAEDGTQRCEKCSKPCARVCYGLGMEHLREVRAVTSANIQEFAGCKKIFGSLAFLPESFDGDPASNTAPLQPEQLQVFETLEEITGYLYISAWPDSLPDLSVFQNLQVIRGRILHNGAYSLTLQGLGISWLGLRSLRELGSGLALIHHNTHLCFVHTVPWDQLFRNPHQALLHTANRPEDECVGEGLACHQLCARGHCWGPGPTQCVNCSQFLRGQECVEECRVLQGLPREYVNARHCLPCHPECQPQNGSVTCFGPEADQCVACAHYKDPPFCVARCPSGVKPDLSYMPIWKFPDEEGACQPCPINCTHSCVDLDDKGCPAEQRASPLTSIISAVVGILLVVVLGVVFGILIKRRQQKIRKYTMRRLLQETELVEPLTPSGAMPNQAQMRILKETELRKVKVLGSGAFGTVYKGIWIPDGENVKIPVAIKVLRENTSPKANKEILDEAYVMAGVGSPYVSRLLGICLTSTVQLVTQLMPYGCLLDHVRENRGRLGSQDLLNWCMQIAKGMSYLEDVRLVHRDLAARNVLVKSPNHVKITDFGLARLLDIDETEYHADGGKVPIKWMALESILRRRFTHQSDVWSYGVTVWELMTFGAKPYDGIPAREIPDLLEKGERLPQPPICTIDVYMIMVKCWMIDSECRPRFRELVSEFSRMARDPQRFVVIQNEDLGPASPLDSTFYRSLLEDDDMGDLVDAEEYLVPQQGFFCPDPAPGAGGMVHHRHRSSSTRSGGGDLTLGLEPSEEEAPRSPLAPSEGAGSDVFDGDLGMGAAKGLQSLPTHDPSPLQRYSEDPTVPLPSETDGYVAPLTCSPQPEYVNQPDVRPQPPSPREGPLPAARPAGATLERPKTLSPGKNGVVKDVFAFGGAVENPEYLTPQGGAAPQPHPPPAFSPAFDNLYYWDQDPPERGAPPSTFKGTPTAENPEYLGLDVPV
363 human kinases (including Aurora A/B/C) (Homo sapiens, UniProt Q00536), sequence (Q00536 whole entry): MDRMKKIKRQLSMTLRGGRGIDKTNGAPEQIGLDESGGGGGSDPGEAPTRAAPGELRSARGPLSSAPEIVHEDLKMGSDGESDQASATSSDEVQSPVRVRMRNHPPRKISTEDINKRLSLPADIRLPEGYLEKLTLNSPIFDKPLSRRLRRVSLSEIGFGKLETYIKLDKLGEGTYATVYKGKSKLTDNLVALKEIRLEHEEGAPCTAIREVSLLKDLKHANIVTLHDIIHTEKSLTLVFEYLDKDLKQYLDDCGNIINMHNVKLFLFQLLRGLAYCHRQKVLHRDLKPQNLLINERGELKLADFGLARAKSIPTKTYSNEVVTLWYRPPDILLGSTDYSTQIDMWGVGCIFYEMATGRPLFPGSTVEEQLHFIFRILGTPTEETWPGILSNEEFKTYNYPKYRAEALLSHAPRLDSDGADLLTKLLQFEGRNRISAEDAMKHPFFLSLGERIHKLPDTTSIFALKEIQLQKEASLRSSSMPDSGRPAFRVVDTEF

For `O=C(c1cccc(Cl)c1F)N1CCN(Cc2cccc(Nc3nccs3)n2)CC1` [MK-8745], the “% Enzyme Activity (relative to DMSO controls)” value was 70.34% in test [1] (500 nM); 88.10% in [2] (500 nM); 99.40% in test [3] (500 nM); 95.86% in test [4] (500 nM); 86.22% in test [5] (500 nM); 88.19% in [6] (500 nM). Besides, the “% Enzyme Activity (relative to DMSO controls)” value was determined as 78.39% in test [7] (500 nM); 110.95% in test [8] (500 nM); 19.23% in test [9] (500 nM); 100.89% in test [10] (500 nM); 102.33% in test [11] (500 nM). For the same molecule, the remaining activity at 0.5 µM in [1] (500 nM) worked out at 71.1%; in test [2] (500 nM) it was 89.1%; in test [3] (500 nM), 99.8%; in test [4] (500 nM), 97.4%; in [5] (500 nM), 86.8%; in test [6] (500 nM), 90.7%. Moreover, the remaining activity at 0.5 µM in test [7] (500 nM) turned out to be 78.8%; in test [8] (500 nM), 111%; in test [9] (500 nM), 19.7%; in [10] (500 nM), 102%; in [11] (500 nM), 106%.

Turning to `CCn1cc(-c2ccnc3[nH]c(-c4cccc(CN(C)C)c4)cc23)c(-c2ccc(NC(=O)N(C)C)cc2)n1` [GSK1070916], the remaining activity at 0.1 µM came to 107% in test [1]; 87.5% in [2]; 103% in [3]; 105% in test [4]; 82.4% in test [5]; 96.1% in test [6]. Besides, the remaining activity at 0.1 µM turned out to be 94% in test [7]; 107% in test [8]; 26.2% in test [9]; 86.9% in test [10]; 104% in [11].

Consider `O=C(O)[C@]1(Cc2cccc(Nc3nccs3)n2)CC[C@@H](Oc2cccc(Cl)c2F)CC1` [MK-5108], for which the remaining activity at 0.1 µM in test [1] was determined as 70.7%; in [2] it was 95.5%; in test [3] it was 100%; in test [4], 116%; in test [5], 103%; in test [6] it was 48.1%. The remaining activity at 0.1 µM in [7] is 96.1%; in test [8], 83.6%; in [9] it was 7.97%; in test [10], 101%; in test [11], 89.2%. Further, the remaining activity at 0.5 µM in test [1] (500 nM) stood at 15.2%; in test [2] (500 nM) it was 72.9%; in test [3] (500 nM) it was 111%; in test [4] (500 nM) it was 102%; in test [5] (500 nM) it was 129%; in test [6] (500 nM), 14.2%. The remaining activity at 0.5 µM in test [7] (500 nM) was 98.7%; in test [8] (500 nM), 98%; in test [9] (500 nM), 1.89%; in [10] (500 nM), 74%; in test [11] (500 nM), 50%.

These data come from paper PMC4685510, “A Cell Biologist’s Field Guide to Aurora Kinase Inhibitors” (Frontiers in Oncology, 2015).
